{"source": "paper PMC4492759", "about": "“Pharmacological profiling of the hemodynamic effects of cannabinoid ligands: a combined in vitro and in vivo approach” (Pharmacology Research & Perspectives, 2015)", "key": {"mouse CB1": {"target": "T1, mouse CB1 (Mus musculus, UniProt P47746)", "T1 construct": "expressed in transfected cells; host or cells: HEK293s, transient transfection; membranes prepared", "T1 sequence (P47746 whole entry)": "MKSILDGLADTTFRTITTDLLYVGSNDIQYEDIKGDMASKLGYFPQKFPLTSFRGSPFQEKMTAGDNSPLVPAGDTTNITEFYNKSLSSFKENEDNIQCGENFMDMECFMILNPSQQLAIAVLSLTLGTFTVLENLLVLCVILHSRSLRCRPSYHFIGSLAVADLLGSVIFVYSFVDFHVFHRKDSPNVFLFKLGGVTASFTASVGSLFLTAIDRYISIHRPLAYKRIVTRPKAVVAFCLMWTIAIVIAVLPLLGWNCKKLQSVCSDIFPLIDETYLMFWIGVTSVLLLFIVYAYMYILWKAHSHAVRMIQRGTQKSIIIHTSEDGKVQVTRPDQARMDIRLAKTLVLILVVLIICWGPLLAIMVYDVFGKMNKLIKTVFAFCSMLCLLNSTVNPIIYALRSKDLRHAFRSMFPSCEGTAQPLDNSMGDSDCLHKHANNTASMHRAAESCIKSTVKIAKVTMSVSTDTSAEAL", "assay": "[35S]-GTPγS binding, membranes of HEK293s cells transfected with mouse CB1", "format": "biochemical", "details": "mean ± SEM", "procedure": "(§1) Antagonist assays were performed similarly, with the addition of an EC80 concentration of CP55940 as a nonselective CB1/CB2 agonist in conjunction with the ligand to be tested. Nonspecific binding was determined in the presence of 20 μmol/L unlabeled GTPγS. The reaction was terminated by addition of ice-cold wash buffer (50 mmol/L Tris-HCl, 5 mmol/L MgCl2, 50 mmol/L NaCl; pH 7.4) followed by rapid filtration under vacuum through 96-well B-glass fiber filter plates (PerkinElmer, Waltham, Massachusetts, USA) using a Biomek FX (Beckman Coulter, Bromma, Sweden). The filter plates were dried (30 min at 50°C) before scintillation liquid (PerkinElmer) was added onto the filters and the bound radioactivity was determined using a scintillation counter (Wallac). Data were fitted with a four-parameter logistic fit using the equation y = A + (B − A)/1 + ((C/x)^D), where A is no activation, B is full activation, C is the EC50, and D is the Hill slope. All data were based on at least three independent experiments."}, "rat GPR55": {"target": "T2, rat GPR55 (Rattus norvegicus, UniProt F1MAK4)", "T2 construct": "expressed in transfected cells; host or cells: HEK293s, transient transfection; membranes prepared", "T2 sequence (F1MAK4 1-319)": "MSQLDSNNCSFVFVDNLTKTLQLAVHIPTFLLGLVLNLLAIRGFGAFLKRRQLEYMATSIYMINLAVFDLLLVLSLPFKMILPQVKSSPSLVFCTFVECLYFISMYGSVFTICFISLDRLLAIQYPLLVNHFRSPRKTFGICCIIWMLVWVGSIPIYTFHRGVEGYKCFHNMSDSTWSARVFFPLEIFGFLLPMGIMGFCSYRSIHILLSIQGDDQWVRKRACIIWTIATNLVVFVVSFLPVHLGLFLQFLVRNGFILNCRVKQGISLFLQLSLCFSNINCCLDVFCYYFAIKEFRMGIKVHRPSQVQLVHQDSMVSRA", "assay": "[35S]-GTPγS binding, membranes of HEK293s cells transfected with rat GPR55", "format": "biochemical", "procedure": "as §1, with “HEK293s cells were transiently transfected with cDNA encoding rat or mouse CB1 or GPR55 and membranes were prepared as previously described (Ryberg et al. [2007]). In short, agonist activities in [^35S]-GTPγS binding assays were determined by the addition of ligand at 30°C for 45 min in membrane buffer [50 mmol/L NaCl, 5 mmol/L MgCl2, 0.5 mmol/L EDTA, 25 mmol/L HEPES (all Sigma, Gillingham, Dorset, UK); pH 7.4] containing 0.05 μg μL^−1 of membrane protein with 0.01% BSA, 25 μmol/L guanosine 5′-diphosphate (GDP), 100 μmol/L dithiothreitol (DTT), and 0.53 nmol/L [^35S]GTPγS (PerkinElmer) in a final volume of 200 μL. Antagonist” for “Antagonist”"}, "mouse GPR55": {"target": "T3, mouse GPR55 (Mus musculus, UniProt Q3UJF0)", "T3 construct": "expressed in transfected cells; host or cells: HEK293s, transient transfection; membranes prepared", "T3 sequence (Q3UJF0 whole entry)": "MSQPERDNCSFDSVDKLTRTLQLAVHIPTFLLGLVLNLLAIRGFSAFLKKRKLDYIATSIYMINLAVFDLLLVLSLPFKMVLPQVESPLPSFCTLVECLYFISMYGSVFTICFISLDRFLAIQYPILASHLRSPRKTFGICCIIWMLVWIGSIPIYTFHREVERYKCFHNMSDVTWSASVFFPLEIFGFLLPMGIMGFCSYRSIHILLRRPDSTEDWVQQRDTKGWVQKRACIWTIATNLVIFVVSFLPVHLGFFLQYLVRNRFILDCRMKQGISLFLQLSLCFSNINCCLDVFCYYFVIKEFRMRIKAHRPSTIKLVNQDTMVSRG", "assay": "[35S]-GTPγS binding, membranes of HEK293s cells transfected with mouse GPR55", "format": "biochemical", "details": "mean ± SEM", "procedure": "as §1, with “HEK293s cells were transiently transfected with cDNA encoding rat or mouse CB1 or GPR55 and membranes were prepared as previously described (Ryberg et al. [2007]). In short, agonist activities in [^35S]-GTPγS binding assays were determined by the addition of ligand at 30°C for 45 min in membrane buffer [50 mmol/L NaCl, 5 mmol/L MgCl2, 0.5 mmol/L EDTA, 25 mmol/L HEPES (all Sigma, Gillingham, Dorset, UK); pH 7.4] containing 0.05 μg μL^−1 of membrane protein with 0.01% BSA, 25 μmol/L guanosine 5′-diphosphate (GDP), 100 μmol/L dithiothreitol (DTT), and 0.53 nmol/L [^35S]GTPγS (PerkinElmer) in a final volume of 200 μL. Antagonist” for “Antagonist”"}, "[1]": {"test_system": "anesthetized Sprague–Dawley (SD) rats", "assay": "Hemodynamic responses (MABP, HR) in anesthetized normotensive rats", "format": "in vivo, rat", "procedure": "(§2) All experiments performed under terminal anesthesia were carried out following approval by Robert Gordon University Animal Ethics Panel. Anesthesia was induced in male SD rats (200–300 g) by sodium pentobarbital [60 mg kg^−1 intraperitoneal (i.p.) injection]. Male/female WT and GPR55^−/− mice (25–35 g) were anesthetized with a mixture of ketamine (120 mg kg^−1) and xylazine (16 mg kg^−1) via i.p. injection. For both species the trachea was cannulated to allow artificial respiration with room air when required (54 strokes min^−1 and tidal volume 1.5 mL 100 g^−1 for rats; 120 strokes min^−1 and tidal volume 100 μL 10 g^−1 for mice) and the left carotid artery and right jugular vein were cannulated for the measurement of arterial BP (MLT844 Physiological Pressure Transducer; AD Instruments, Oxford, UK) and drug administration, respectively. Core temperature was monitored continuously and maintained at 37–38°C with the aid of a Vetcare heated pad (Harvard Apparatus Ltd., Boston, Massachusetts, USA). Anesthesia was monitored by foot pinch reflex and maintained throughout by administration of additional doses of anesthetic (rats: 3–4 mg kg^−1 of sodium pentobarbital salt i.v.; mice: 50 μL 25 g^−1of ketamine/xylazine i.p.) every 40 min, or as required. […] Heart rate (HR) was calculated from the ECG and recorded throughout the entire experimental period. After a stabilization period of approximately 15 min dose–response experiments were carried out as described below.\n(§3) As a preliminary assessment of the effects of ACEA on arterial BP, a single bolus intravenous dose (3 mg kg^−1; selected from the literature as a dose known to produce a depressor response) was given to anesthetized rats. […] The time interval between drug administrations was 10–15 min to allow BP values to return to predrug values."}, "[2]": {"test_system": "anesthetized WT and GPR55−/− mice", "assay": "Hemodynamic responses (MABP, HR) in anesthetized WT and GPR55−/− mice", "format": "in vivo, mouse", "procedure": "as §2, §3"}, "rat CB1": {"target": "T4, rat CB1 (Rattus norvegicus, UniProt P20272)", "T4 construct": "expressed in transfected cells; host or cells: HEK293s, transient transfection; membranes prepared", "T4 sequence (P20272 whole entry)": "as the sequence (P47746 whole entry) above, with D95E counted along it", "assay": "[35S]-GTPγS binding, membranes of HEK293s cells transfected with rat CB1", "format": "biochemical", "details": "for EC50: mean ± SEM", "procedure": "as §1"}, "[3]": {"test_system": "conscious WT, CB1−/− and GPR55−/− mice", "assay": "Blood pressure and heart rate responses in conscious mice (WT, CB1−/−, GPR55−/−)", "details": "metoprolol (10 mg kg−1 i.v.); conscious GPR55−/− mice"}, "[4]": {"assay": "Blood concentration estimated from dose and blood volume", "details": "ACEA 3 mg kg−1; assuming total blood volume ∼20 mL in a 300 g rat", "from_the_text": "Therefore, in an attempt to determine whether GPR55 plays a role in the depressor response to ACEA we studied the hemodynamic responses in anesthetized WT and GPR55^−/− mice."}, "[5]": {"details": "agonist mode, at least three experiments, read-out: CB1 EC50, Mouse"}, "[6]": {"details": "antagonist mode, vs EC80 concentration of CP55940, read-out: CB1 EC50, Mouse (ligand behaved as an antagonist)"}, "[7]": {"details": "agonist mode, at least three experiments, read-out: GPR55 EC50, Mouse"}}, "note": "Like-named read-outs stand apart in the source and are kept apart here.", "data": [{"smiles": "C=C(C)[C@@H]1CCC(C)=C[C@H]1c1c(O)cc(CCCCC)cc1O", "note": "[CBD, cannabidiol]", "values": [{"measurement": "EC50", "setting": "mouse CB1; [5]", "result": "> 30000", "unit": "nM"}, {"measurement": "EC50", "setting": "rat GPR55", "result": "624 ± 13", "unit": "nM"}, {"measurement": "EC50", "setting": "mouse GPR55; antagonist mode, vs EC80 concentration of CP55940, read-out: GPR55 EC50, Mouse (ligand behaved as an antagonist)", "result": "780 ± 8", "unit": "nM"}, {"measurement": "effect on HR", "setting": "[1]; CBD 50 μg kg−1, any experiments (rats and mice), data not shown", "result": "unaffected"}, {"measurement": "reduction of AAC value of the depressor response to ACEA", "setting": "[1]; CBD alone 50 μg kg−1, ACEA 3 mg kg−1, P < 0.05", "result": "approximately 50%"}, {"measurement": "blood pressure response", "setting": "[1]; CBD alone 50 μg kg−1 single bolus, P < 0.05", "result": "small but measurable and statistically significant depressor response"}, {"measurement": "blood pressure response", "setting": "[2]; CBD alone 50 μg kg−1, WT and GPR55−/− mice", "result": "depressor responses of a similar magnitude"}]}, {"smiles": "Cc1c(C(=O)NN2CCCCC2)nn(-c2ccc(Cl)cc2Cl)c1-c1ccc(I)cc1", "note": "[AM251, 1-(2,4-dichlorophenyl)-5-(4-iodophenyl)-4-methyl-N-(piperidin-1-yl)-1H-pyrazole-3-carboxamide]", "values": [{"measurement": "higher potency for CB1 (antagonist) than GPR55 (agonist)", "setting": "rat CB1; GTPγS binding, rat and mouse", "result": "three to five"}, {"measurement": "EC50", "setting": "mouse CB1; [6]", "result": "13 ± 2", "unit": "nM"}, {"measurement": "EC50", "setting": "rat GPR55", "result": "74 ± 3", "unit": "nM"}, {"measurement": "EC50", "setting": "mouse GPR55; [7]", "result": "68 ± 3", "unit": "nM"}, {"measurement": "effect on magnitude and duration of the depressor response to ACEA", "setting": "[1]; AM251 1 and 3 mg kg−1, ACEA 3 mg kg−1, dose-dependent, P < 0.01", "result": "attenuated"}, {"measurement": "depressor response in the presence of CBD", "setting": "[2]; AM251 (1 and 3 mg kg−1) with CBD (50 μg kg−1), mice", "result": "augmented"}]}, {"smiles": "Cc1c(C(=O)NN2CCOCC2)nn(-c2ccc(Cl)cc2Cl)c1-c1ccc(I)cc1", "note": "[AM281, 1-(2,4-dichlorophenyl)-5-(4-iodophenyl)-4-methyl-N-4-morpholinyl-1H-pyrazole-3-carboxamide]", "values": [{"measurement": "EC50", "setting": "rat CB1; antagonist mode, vs EC80 concentration of CP55940, read-out: CB1 EC50, Rat (ligand behaved as an antagonist)", "result": "13 ± 4", "unit": "nM"}, {"measurement": "EC50", "setting": "mouse CB1; [6]", "result": "8 ± 1", "unit": "nM"}, {"measurement": "EC50", "setting": "rat GPR55", "result": "> 30000", "unit": "nM"}, {"measurement": "EC50", "setting": "mouse GPR55; [7]", "result": "> 30000", "unit": "nM"}]}, {"smiles": "CCCCC/C=C\\C/C=C\\C/C=C\\C/C=C\\CCCC(=O)NCCO", "note": "[AEA, anandamide]", "values": [{"measurement": "EC50", "setting": "rat GPR55", "result": "24 ± 3", "unit": "nM"}, {"measurement": "EC50", "setting": "mouse GPR55; [7]", "result": "38 ± 3", "unit": "nM"}]}, {"smiles": "COCCc1ccc(OCC(O)CNC(C)C)cc1", "note": "(stereo not drawn) [metoprolol]", "values": [{"measurement": "effect on HR", "setting": "[3]", "result": "profound and long-lasting bradycardia"}]}, {"smiles": "CCCCC/C=C\\C/C=C\\C/C=C\\C/C=C\\CCCC(=O)NCCCl", "note": "[ACEA, arachidonyl-2′-chloroethylamide]", "values": [{"measurement": "higher affinity for CB1 as compared to GPR55", "setting": "rat CB1; GTPγS binding, both mouse and rat", "result": "approximately 10 fold"}, {"measurement": "EC50", "setting": "rat CB1; agonist mode, at least three experiments, read-out: CB1 EC50, Rat", "result": "7 ± 1", "unit": "nM"}, {"measurement": "EC50", "setting": "mouse CB1; [5]", "result": "3 ± 0.5", "unit": "nM"}, {"measurement": "EC50", "setting": "rat GPR55; agonist mode, mean ± SEM, at least three experiments, read-out: GPR55 EC50, Rat", "result": "78 ± 4", "unit": "nM"}, {"measurement": "EC50", "setting": "mouse GPR55; [7]", "result": "62 ± 3", "unit": "nM"}, {"measurement": "effect on HR", "setting": "[1]; ACEA single bolus 3 mg kg−1 i.v.", "result": "no effect"}, {"measurement": "blood pressure (MABP) response", "setting": "[1]; ACEA single bolus 3 mg kg−1 i.v., P < 0.001", "result": "reproducible and pronounced depressor response"}, {"measurement": "effect on HR", "setting": "[2]; ACEA 3 mg kg−1, WT and GPR55−/− mice", "result": "nor was there any measurable effect"}, {"measurement": "depressor response distinguishable from vehicle", "setting": "[2]; ACEA 3 mg kg−1, either WT or GPR55−/− mice", "result": "did not produce a depressor response"}, {"measurement": "expected total (not necessarily free) blood concentration", "setting": "[4]", "result": "100 to 120", "unit": "nmol/L"}]}]}
